Molecules are shown by their SMILES. pIC50: −log10 of the molar value. Where only a bound is given, the exact number is not on record here.

The first test deals with T1, Full-length, GST-tagged, human CaMKIIδ (Homo sapiens, UniProt Q13557).
T1 construct: Full-Length, Glutathione-S-Transferase(GST)-Tagged, Human CaMKIIδ was purchased from Carna Biosciences; purchased Carna Biosciences 02-111
T1 sequence (Q13557 1-478 isoform Q13557-12): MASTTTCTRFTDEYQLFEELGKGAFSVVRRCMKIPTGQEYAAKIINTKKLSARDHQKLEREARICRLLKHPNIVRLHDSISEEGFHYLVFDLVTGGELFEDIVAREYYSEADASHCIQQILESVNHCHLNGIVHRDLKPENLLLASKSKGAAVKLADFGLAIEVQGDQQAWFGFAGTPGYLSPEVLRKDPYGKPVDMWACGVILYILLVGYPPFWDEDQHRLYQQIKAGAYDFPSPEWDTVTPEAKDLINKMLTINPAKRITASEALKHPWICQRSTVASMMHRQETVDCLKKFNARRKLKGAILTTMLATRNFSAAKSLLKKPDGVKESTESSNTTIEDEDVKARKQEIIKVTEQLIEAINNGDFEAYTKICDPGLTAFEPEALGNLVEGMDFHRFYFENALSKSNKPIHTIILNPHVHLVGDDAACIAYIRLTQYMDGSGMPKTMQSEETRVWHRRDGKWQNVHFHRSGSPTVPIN
Description: CaMKIIδ binding assay (TR-FRET with BODIPY-labeled probe ligand). The settings on record: CaMKIIδ binding assay, results of Table 2. In short, it runs like this: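 Compounds were tested as 4-fold, eight-point series for 1 hr at room temperature, and IC50 was obtained by logistic fitting against a 3 μM parent-compound control. Signal came from displacement of a 300 nM BODIPY ligand from 0.5 nM GST-CaMKIIδ, detected via Tb-anti-GST in calmodulin/Ca2+ (pH 7.6).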
For orientation: TR-FRET usually uses a lanthanide donor and a delayed reading to cut background.
On to `C[C@@H](Cn1cnnn1)Oc1cc(-c2cnc(Nc3cn(C4CCN(CC5CC5)CC4)nc3C(F)(F)F)nc2)ccc1Cl` [Example 549, (S)-5-(3-((1-(1H-tetrazol-1-yl)propan-2-yl)oxy)-4-chlorophenyl)-N-(1-(1-(cyclopropylmethyl)piperidin-4-yl)-3-(trifluoromethyl)-1H-pyrazol-4-yl)pyrimidin-2-amine], for which the pIC50 was > 8.00.

The molecule `C[C@@H](Cn1cnnn1)Oc1cc(-c2cnc(Nc3cn(C4CCN(CC(F)(F)F)CC4)nc3C(F)(F)F)nc2)ccc1Cl` [Example 486, (S)-5-(3-((1-(1H-tetrazol-1-yl)propan-2-yl)oxy)-4-chlorophenyl)-N-(1-(1-(2,2,2-trifluoroethyl)piperidin-4-yl)-3-(trifluoromethyl)-1H-pyrazol-4-yl)pyrimidin-2-amine] had a pIC50 of 7.00 to 8.00.

As to `COCCN1CCc2cc(OC)c(Nc3ncc(-c4ccc(Cl)c(O[C@@H](C)Cn5cnnn5)c4)cn3)cc2C1` [Example 518, (S)-N-(5-(3-((1-(1H-tetrazol-1-yl)propan-2-yl)oxy)-4-chlorophenyl)pyrimidin-2-yl)-6-methoxy-2-(2-methoxyethyl)-1,2,3,4-tetrahydroisoquinolin-7-amine], the pIC50 was > 8.00.

As to `COc1cc2c(cc1Nc1ncc(-c3ccc(Cl)c(O[C@@H](C)Cn4cnnn4)c3)cn1)CN(C1CCOCC1)CC2` [Example 502, (S)-N-(5-(3-((1-(1H-tetrazol-1-yl)propan-2-yl)oxy)-4-chlorophenyl)pyrimidin-2-yl)-6-methoxy-2-(tetrahydro-2H-pyran-4-yl)-1,2,3,4-tetrahydroisoquinolin-7-amine], the pIC50 is > 8.00.

As for `COc1cc(C)c(C(=O)N2CCOCC2)cc1Nc1ncc(-c2ccc(Cl)c(O[C@@H](C)Cn3cnnn3)c2)cn1` [Example 439, (S)-(5-((5-(3-((1-(1H-tetrazol-1-yl)propan-2-yl)oxy)-4-chlorophenyl)pyrimidin-2-yl)amino)-4-methoxy-2-methylphenyl)(morpholino)methanone], the pIC50 is > 8.00.

As for `COc1cc2c(cc1Nc1ncc(-c3ccc(Cl)c(O[C@@H](C)Cn4cnnn4)c3)cn1)CN(C(=O)CN1CCOCC1)CC2` [Example 501, (S)-1-(7-((5-(3-((1-(1H-tetrazol-1-yl)propan-2-yl)oxy)-4-chlorophenyl)pyrimidin-2-yl)amino)-6-methoxy-3,4-dihydroisoquinolin-2(1H)-yl)-2-morpholinoethan-1-one], the pIC50 was 7.00 to 8.00.

Still in this test, the particulars now being: CaMKIIδ binding assay; activity class per Table 2.
For `COc1ccc(Cn2cc(Nc3ncc(-c4ccc(Cl)c(O[C@@H](C)Cn5cnnn5)c4)cn3)c(OCC(F)(F)F)n2)cn1` [Example 926, (S)-5-(3-((1-(1H-tetrazol-1-yl)propan-2-yl)oxy)-4-chlorophenyl)-N-(1-((6-methoxypyridin-3-yl)methyl)-3-(2,2,2-trifluoroethoxy)-1H-pyrazol-4-yl)pyrimidin-2-amine], the pIC50 is > 8.00.

Take `C[C@@H](Cn1cnnn1)Oc1cc(-c2cnc(Nc3cn(CC4(O)CCC(=O)CC4)nc3OCC(F)(F)F)nc2)ccc1Cl` [Example 903, (S)-4-((4-((5-(3-((1-(1H-tetrazol-1-yl)propan-2-yl)oxy)-4-chlorophenyl)pyrimidin-2-yl)amino)-3-(2,2,2-trifluoroethoxy)-1H-pyrazol-1-yl)methyl)-4-hydroxycyclohexan-1-one]: the pIC50 is > 8.00.

With `C[C@@H](Cn1cnnn1)Oc1cc(-c2cnc(Nc3cn([C@@H]4CCN(C5CCC5)C[C@H]4O)nc3C(F)(F)F)nc2)ccc1Cl` (mixture of isomers) [Example 898, trans-4-(4-((5-(3-(((S)-1-(1H-tetrazol-1-yl)propan-2-yl)oxy)-4-chlorophenyl)pyrimidin-2-yl)amino)-3-(trifluoromethyl)-1H-pyrazol-1-yl)-1-cyclobutylpiperidin-3-ol], the pIC50 is > 8.00.

Regarding `C[C@@H](Cn1cnnn1)Oc1cc(-c2cnc(Nc3cn(CC4(O)CCN(C)CC4)nc3C(F)(F)F)nc2)ccc1Cl` [Example 891, (S)-4-((4-((5-(3-((1-(1H-tetrazol-1-yl)propan-2-yl)oxy)-4-chlorophenyl)pyrimidin-2-yl)amino)-3-(trifluoromethyl)-1H-pyrazol-1-yl)methyl)-1-methylpiperidin-4-ol], the pIC50 was > 8.00.

With `C[C@@H](Cn1cnnn1)Oc1cc(-c2cnc(Nc3cn(Cc4cccc(=O)[nH]4)nc3OCC(F)(F)F)nc2)ccc1Cl` [Example 929, (S)-6-((4-((5-(3-((1-(1H-tetrazol-1-yl)propan-2-yl)oxy)-4-chlorophenyl)pyrimidin-2-yl)amino)-3-(2,2,2-trifluoroethoxy)-1H-pyrazol-1-yl)methyl)pyridin-2(1H)-one], the pIC50 was > 8.00.

The test is the same for the next values; noted with them: Table 2; CaMKIIδ binding assay, activity given as class A/B/C.
As for `C[C@@H](Cn1cnnn1)Oc1cc(-c2cnc(Nc3cn([C@H]4CC[C@H](N5CC(F)C5)CC4)nc3OC3COC3)nc2)ccc1Cl` [Example 863, 5-(3-(((S)-1-(1H-tetrazol-1-yl)propan-2-yl)oxy)-4-chlorophenyl)-N-(1-(trans-4-(3-fluoroazetidin-1-yl)cyclohexyl)-3-(oxetan-3-yloxy)-1H-pyrazol-4-yl)pyrimidin-2-amine], the pIC50 is > 8.00.

For the molecule `CC(C)N1CC2(CC(n3cc(Nc4ncc(-c5ccc(Cl)c(O[C@@H](C)Cn6cnnn6)c5)cn4)c(OCC(F)(F)F)n3)C2)C1` [Example 815, (S)-5-(3-((1-(1H-tetrazol-1-yl)propan-2-yl)oxy)-4-chlorophenyl)-N-(1-(2-isopropyl-2-azaspiro[3.3]heptan-6-yl)-3-(2,2,2-trifluoroethoxy)-1H-pyrazol-4-yl)pyrimidin-2-amine], the pIC50 is > 8.00.

`CC(=O)NC(C)(C)Cn1cc(Nc2ncc(-c3ccc(Cl)c(O[C@@H](C)Cn4cnnn4)c3)cn2)c(C(F)(F)F)n1` [Example 862, (S)-N-(1-(4-((5-(3-((1-(1H-tetrazol-1-yl)propan-2-yl)oxy)-4-chlorophenyl)pyrimidin-2-yl)amino)-3-(trifluoromethyl)-1H-pyrazol-1-yl)-2-methylpropan-2-yl)acetamide]: the pIC50 was 7.00 to 8.00.

The molecule `C[C@@H](Cn1cccn1)Oc1cc(-c2cnc(Nc3cn([C@H]4CC[C@@H](N5CCOCC5)CC4)nc3C(F)(F)F)nc2)ccc1C#N` [Example 785, 2-(((S)-1-(1H-pyrazol-1-yl)propan-2-yl)oxy)-4-(2-((1-(cis-4-morpholinocyclohexyl)-3-(trifluoromethyl)-1H-pyrazol-4-yl)amino)pyrimidin-5-yl)benzonitrile] had a pIC50 of 7.00 to 8.00.

As to `C[C@@H](Cn1cc(F)cn1)Oc1cc(-c2cnc(Nc3cn(C4CCN(C5CCOCC5)CC4)nc3OCC(F)(F)F)nc2)ccc1C#N` [Example 819, (S)-2-((1-(4-fluoro-1H-pyrazol-1-yl)propan-2-yl)oxy)-4-(2-((1-(1-(tetrahydro-2H-pyran-4-yl)piperidin-4-yl)-3-(2,2,2-trifluoroethoxy)-1H-pyrazol-4-yl)amino)pyrimidin-5-yl)benzonitrile], the negative logarithm of the IC50 (pIC50) is 7.00 to 8.00.

Take `C[C@@H](Cn1cnnn1)Oc1cc(-c2cnc(Nc3cn(C4CCCCNC4=O)nc3OCC(F)(F)F)nc2)ccc1Cl` (stereo partly drawn) [Example 777, 3-(4-((5-(3-(((S)-1-(1H-tetrazol-1-yl)propan-2-yl)oxy)-4-chlorophenyl)pyrimidin-2-yl)amino)-3-(2,2,2-trifluoroethoxy)-1H-pyrazol-1-yl)azepan-2-one]: the pIC50 is > 8.00.

The test is the same for the next values; noted with them: Table 2; activity class for CaMKIIδ.
`COc1ccc(N2C[C@@H](C)N[C@@H](C)C2)cc1Nc1ncc(-c2ccc(Cl)c(O[C@@H](C)Cn3cnnn3)c2)cn1` [Example 612, 5-(3-(((S)-1-(1H-tetrazol-1-yl)propan-2-yl)oxy)-4-chlorophenyl)-N-(5-(cis-3,5-dimethylpiperazin-1-yl)-2-methoxyphenyl)pyrimidin-2-amine]: the pIC50 is > 8.00.

Molecule `COc1cc(N2CCN(C3CCOCC3)CC2)cnc1Nc1ncc(-c2ccc(Cl)c(O[C@@H](C)Cn3cnnn3)c2)cn1` [Example 647, (S)-5-(3-((1-(1H-tetrazol-1-yl)propan-2-yl)oxy)-4-chlorophenyl)-N-(3-methoxy-5-(4-(tetrahydro-2H-pyran-4-yl)piperazin-1-yl)pyridin-2-yl)pyrimidin-2-amine] gave a pIC50 of 7.00 to 8.00.

On to `C[C@@H](Cn1cnnn1)Oc1cc(-c2cnc(Nc3cc(C(F)(F)F)n(C)n3)nc2)ccc1Cl` [Example 711, (S)-5-(3-((1-(1H-tetrazol-1-yl)propan-2-yl)oxy)-4-chlorophenyl)-N-(1-methyl-5-(trifluoromethyl)-1H-pyrazol-3-yl)pyrimidin-2-amine], for which the pIC50 was ≤ 7.00.

For the molecule `COc1cc(N2CCCN(C3CCOCC3)CC2)ccc1Nc1ncc(-c2ccc(Cl)c(O[C@@H](C)Cn3cnnn3)c2)cn1` [Example 693, (S)-5-(3-((1-(1H-tetrazol-1-yl)propan-2-yl)oxy)-4-chlorophenyl)-N-(2-methoxy-4-(4-(tetrahydro-2H-pyran-4-yl)-1,4-diazepan-1-yl)phenyl)pyrimidin-2-amine], the pIC50 was > 8.00.

`CC(C)n1ccc(Nc2ncc(-c3ccc(Cl)c(O[C@@H](C)Cn4cnnn4)c3)cn2)n1` [Example 723, (S)-5-(3-((1-(1H-tetrazol-1-yl)propan-2-yl)oxy)-4-chlorophenyl)-N-(1-isopropyl-1H-pyrazol-3-yl)pyrimidin-2-amine] had a pIC50 of 7.00 to 8.00.

`C[C@@H](Cn1cnnn1)Oc1cc(-c2cnc(Nc3cn(CCN4CCCC4)nc3C(F)(F)F)nc2)ccc1Cl` [Example 631, (S)-5-(3-((1-(1H-tetrazol-1-yl)propan-2-yl)oxy)-4-chlorophenyl)-N-(1-(2-(pyrrolidin-1-yl)ethyl)-3-(trifluoromethyl)-1H-pyrazol-4-yl)pyrimidin-2-amine]: the pIC50 was > 8.00.

Turning to `C[C@@H](Cn1cnnn1)Oc1cc(-c2cnc(Nc3cn(C4CCCCNC4=O)nc3C(F)(F)F)nc2)ccc1Cl` (stereo partly drawn) [Example 629, 3-(4-((5-(3-(((S)-1-(1H-tetrazol-1-yl)propan-2-yl)oxy)-4-chlorophenyl)pyrimidin-2-yl)amino)-3-(trifluoromethyl)-1H-pyrazol-1-yl)azepan-2-one], the pIC50 was > 8.00.

By pIC50 is commonly meant the negative decadic logarithm of the IC50, by convention in mol/L. The low end stands for a high IC50, the high end for a low IC50.

The values above are taken from patent publication US10543212B2, “Substituted amines for treating cardiac diseases” (Cardurion Pharmaceuticals, LLC, priority 2017, dated 2020).
